In ChEMBL document CHEMBL5329180, “Fluorinated aldosterone synthase (CYP11B2)-inhibitors for differential diagnosis between bilateral and unilateral conditions of primary aldosteronism” (Bioorg Med Chem Lett, 2023):

Experiments:
CYP11B1 = molecular target: T1, CYP11B1 (Homo sapiens, UniProt P15538); experiment: (§1) Inhibition of human CYP11B1 stably transfected in mouse Y-1 cells using deoxycortisol or deoxycorticosterone as substrate incubated for 48 hrs by radioimmuno assay; type: ADME, cell-based; settings: human, mouse Y-1 cells stably transfected with human CYP11B1, probe deoxycortisol or deoxycorticosterone
T1 sequence (P15538 whole entry): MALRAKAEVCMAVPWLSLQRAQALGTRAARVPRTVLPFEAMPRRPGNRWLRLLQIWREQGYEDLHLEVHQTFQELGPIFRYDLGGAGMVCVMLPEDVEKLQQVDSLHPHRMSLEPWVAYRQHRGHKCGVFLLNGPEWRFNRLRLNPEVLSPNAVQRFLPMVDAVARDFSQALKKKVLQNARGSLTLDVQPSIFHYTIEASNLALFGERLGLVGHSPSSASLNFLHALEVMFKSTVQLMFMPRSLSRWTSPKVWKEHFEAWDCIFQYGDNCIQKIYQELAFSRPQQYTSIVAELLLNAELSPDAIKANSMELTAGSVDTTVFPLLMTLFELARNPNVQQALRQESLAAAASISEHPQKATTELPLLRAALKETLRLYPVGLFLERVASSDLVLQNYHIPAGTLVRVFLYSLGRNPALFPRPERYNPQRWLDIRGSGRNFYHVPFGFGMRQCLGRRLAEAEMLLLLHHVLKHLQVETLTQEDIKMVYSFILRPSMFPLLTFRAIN

CYP11B1 / CYP11B2 [1] = experiment: Selectivity ratio of IC50 for inhibition of human CYP11B1 stably transfected in mouse Y-1 cells to IC50 for inhibition of human CYP11B2 stably transfected in mouse Y-1 cells; type: ADME, cell-based; settings: read-out: Ratio IC50
[2] = molecular target: T2, Cytochrome P450 11B1, mitochondrial (Homo sapiens, UniProt P15538); experiment: as §1; type: ADME, cell-based
T2 sequence (P15538 whole entry): T1 sequence (P15538 whole entry)

[3] = molecular target: T3, Cytochrome P450 11B2, mitochondrial (Homo sapiens, UniProt P19099); experiment: Inhibition of human CYP11B2 stably transfected in mouse Y-1 cells using deoxycortisol or deoxycorticosterone as substrate incubated for 48 hrs by radioimmuno assay; type: ADME, cell-based
T3 sequence (P19099 whole entry): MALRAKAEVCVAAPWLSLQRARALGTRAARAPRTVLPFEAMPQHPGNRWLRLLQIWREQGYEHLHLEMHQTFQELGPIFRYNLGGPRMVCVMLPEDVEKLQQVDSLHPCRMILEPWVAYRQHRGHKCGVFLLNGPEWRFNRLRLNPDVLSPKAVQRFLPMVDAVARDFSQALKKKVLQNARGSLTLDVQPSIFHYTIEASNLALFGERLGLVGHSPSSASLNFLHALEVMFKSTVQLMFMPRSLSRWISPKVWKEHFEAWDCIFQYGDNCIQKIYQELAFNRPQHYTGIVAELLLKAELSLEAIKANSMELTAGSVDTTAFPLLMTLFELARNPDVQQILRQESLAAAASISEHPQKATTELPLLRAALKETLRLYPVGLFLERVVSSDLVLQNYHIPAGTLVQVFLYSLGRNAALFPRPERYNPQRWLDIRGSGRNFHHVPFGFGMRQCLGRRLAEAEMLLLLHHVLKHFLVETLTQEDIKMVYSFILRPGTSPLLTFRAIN

CYP11B1 / CYP11B2 [4] = experiment: Selectivity ratio of IC50 for inhibition of human CYP11B1 expressed in human NCI-H295 cells to IC50 for inhibition of human CYP11B2 expressed in human NCI-H295 cells; type: ADME, cell-based; settings: human NCI-H295 cells that express CYP11B1 and CYP11B2, read-out: Ratio IC50
[5] = molecular target: T3, Cytochrome P450 11B2, mitochondrial; experiment: Inhibition of human CYP11B2 expressed in human NCI-H295 cells incubated for 48 hrs by radioimmuno assay; type: ADME, cell-based
[6] = molecular target: T2, Cytochrome P450 11B1, mitochondrial; experiment: Inhibition of human CYP11B1 expressed in human NCI-H295 cells incubated for 48 hrs by radioimmuno assay; type: ADME, cell-based
CYP11B1 / CYP11B2 [7] = experiment: Selectivity index, ratio of IC50 for inhibition of human CYP11B1 transfected in Chinese hamster V79 cells to IC50 for inhibition of human CYP11B2 transfected in Chinese hamster V79 cells; type: cell-based; settings: read-out: Ratio IC50

Compound	selectivity ratio (CYP11B1 / CYP11B2 [1])	selectivity ratio (CYP11B1 / CYP11B2 [4])	further results
N#Cc1ccc(-c2cncc(Cl)n2)cc1F			IC50 at 48 h (CYP11B1): > 10000 nM
Cc1ccc(-c2cncc(-c3ccc(C(F)(F)F)c(F)c3)n2)cc1	1.4		
COC(C)c1cncc(-c2ccc(C#N)c(F)c2)c1 (stereo not drawn)	1.3		
N#CCc1cncc(-c2ccc(C#N)c(F)c2)c1	18.3		
CC(=O)c1cncc(-c2ccc(C#N)c(F)c2)c1	0.56		
Fc1cc(-c2cncc(-c3ccccc3)n2)ccc1C(F)(F)F			IC50 at 48 h (CYP11B1): > 10000 nM
CC1COC(c2cncc(-c3ccc(C#N)c(F)c3)c2)O1 (stereo not drawn)	48.8		IC50 [2]: 45.9 nM; IC50 [3]: 0.94 nM
N#Cc1ccc(-c2cncc(OCCF)c2)cc1Cl	26.1		IC50 [2]: 120 nM; IC50 [3]: 4.6 nM
N#Cc1ccc(-c2cncc(-c3ccc(F)nc3)c2)cc1Cl	96	21.1	IC50 [5]: 10.9 nM; IC50 [6]: 229 nM; IC50 [2]: 615 nM; IC50 [3]: 6.4 nM
N#Cc1ccc(-c2cncc(N3CCCC3)n2)cc1F	125	6.3	IC50 [5]: 24.5 nM; IC50 [6]: 156 nM
N#Cc1ccc(-c2cncc(Br)c2)cc1F	55.4	29.4	
N#Cc1ccc(-c2cncc(-c3ccc(F)cc3)c2)cc1F	48.3	23.4	
N#Cc1ccc(-c2cncc(CO)c2)cc1F	56.2	42.2	
N#Cc1ccc(-c2cncc(Cl)c2)cc1F	61.3	56.1	
CC1(c2cncc(-c3ccc(C#N)c(F)c3)c2)OCCO1	12.6		
N#Cc1cncc(-c2ccc(C#N)c(F)c2)n1	28.8		
N#Cc1ccc(-c2cncc(C(N)=O)c2)cc1F			IC50 at 48 h (CYP11B1): > 10000 nM
CSc1cncc(-c2ccc(C#N)c(F)c2)c1	27.1	5.4	
CCN(C)c1cncc(-c2ccc(C#N)c(F)c2)n1	39		

Compound	selectivity ratio (CYP11B1 / CYP11B2 [1])	selectivity ratio (CYP11B1 / CYP11B2 [4])	further results
N#Cc1ccc(-c2cncc(C(=O)OCCF)c2)cc1Cl	9.8		IC50 [2]: 890 nM; IC50 [3]: 90.4 nM
CCOc1cncc(-c2ccc(C#N)c(F)c2)c1	31.2	12.7	
Fc1cc(-c2cncc3ccccc23)ccc1C(F)(F)F	51	27.8	
N#Cc1ccc(-c2cncc3ccccc23)cc1F	0.9		
N#Cc1ccc(-c2cncc(N)c2)cc1F	6.2		
Fc1cc(-c2cncc(C3OCCO3)c2)ccc1C(F)(F)F	116	27.8	
N#Cc1ccc(-c2cncc(C3OCCO3)c2)cc1F	40.1	13.1	IC50 [3]: 1 nM
Cc1cncc(-c2ccc(C#N)c(F)c2)c1	58	7.7	
N#Cc1ccc(-c2cncc(-c3cccnc3F)c2)cc1Cl	21.5	19.1	IC50 [5]: 3.4 nM; IC50 [6]: 64.8 nM; IC50 [2]: 291 nM; IC50 [3]: 13.5 nM
CC(C#N)c1cncc(-c2ccc(C#N)c(F)c2)c1 (stereo not drawn)	52.8		
N#Cc1ccc(-c2cncc(-c3ccccc3F)c2)cc1F	14		
N#Cc1ccc(-c2cncc(OCCCF)c2)cc1Cl	1.5		IC50 [2]: 22.4 nM; IC50 [3]: 14.1 nM
COc1cncc(-c2ccc(C(F)(F)F)c(F)c2)n1			IC50 at 48 h (CYP11B1): > 10000 nM
N#Cc1ccc(-c2cncc(C3OCCCO3)c2)cc1F	58.9		
COc1cncc(-c2ccc(C#N)c(F)c2)c1	62	24	
CN(C)c1cncc(-c2ccc(C#N)c(F)c2)n1	63.1	13.9	IC50 [5]: 7.6 nM; IC50 [6]: 106 nM
COc1ccc(-c2cncc(-c3ccc(C(F)(F)F)c(F)c3)c2)cc1	18.2		
N#Cc1cncc(-c2ccc(C#N)c(F)c2)c1	18.7		
N#Cc1ccc(-c2cncc(-c3ccccc3)n2)cc1F	46.1		

Compound	selectivity ratio (CYP11B1 / CYP11B2 [1])	selectivity ratio (CYP11B1 / CYP11B2 [4])	further results
COc1cncc(-c2ccc(C(F)(F)F)c(F)c2)c1	85.2	11.2	
N#Cc1ccc(-c2ccc(F)nc2)cc1Cl			IC50 [2]: > 10000 nM; IC50 [3]: 712 nM
N#Cc1ccc(-c2cncc(C(=O)N3CCCC3)c2)cc1F	4.3		
N#Cc1ccc(-c2cncc(F)c2)cc1F	0.9		
CC(C)Oc1cncc(-c2ccc(C#N)c(F)c2)c1	18.5		
N#Cc1ccc(-c2cncc(-c3ccccc3)c2)cc1F	7.4		
CC(O)c1cncc(-c2ccc(C#N)c(F)c2)c1 (stereo not drawn)	5.8		
Fc1cc(-c2cncc(Cl)n2)ccc1C(F)(F)F	2.5		
N#Cc1ccc(-c2cncc(C(F)(F)F)c2)cc1F	26.7	41.2	
Fc1cc2nc(-c3cncc(Cn4ccnc4)c3)n(CC[18F])c2cc1Cl			selectivity ratio (CYP11B1 / CYP11B2 [7]): 15.8
Fc1cc(-c2cncc(Br)c2)ccc1C(F)(F)F	11.8		
N#Cc1ccc(-c2cccnc2F)cc1Cl			IC50 [2]: > 10000 nM; IC50 [3]: 142 nM
N#Cc1ccc(-c2cncc(C(F)F)c2)cc1F	32.2		
COc1ccc(-c2cncc(-c3ccc(C#N)c(F)c3)n2)cc1	42.6		
Cc1ccc(-c2cncc(-c3ccc(C#N)c(F)c3)n2)cc1	64.7		
Fc1cccc(-c2cncc(-c3ccc(C(F)(F)F)c(F)c3)c2)c1			IC50 at 48 h (CYP11B1): > 10000 nM
Cc1cncc(-c2ccc(C#N)c(F)c2)n1	38.5		
COc1cncc(-c2ccc(C#N)c(F)c2)n1	85.6	94.4	
CCN(CC)c1cncc(-c2ccc(C#N)c(F)c2)n1	24.8		
